pIC50: −log10 of the molar value. Read-outs that look alike come from different tables or passages of the source.
How the values were obtained:
Type in all cases: cell-based, human
[1] = test system: MCF-7 cells; assay: In vitro cytotoxicity assessment, alamar blue assay, 24-h exposure
Description: The MCF-7 (human breast cancer) and MCF-12A (non-tumourigenic human breast) cell lines were obtained from the Technological University Dublin (TUDublin, City Campus) internal cell bank and commercially from the American Type Culture Collection (ATCC), respectively. Both cell lines were cultured using Dulbecco’s Modified Eagle Medium/Nutrient Mixture F-12 Ham (DMEM-F12) (Sigma, Ireland) (Cat# D6421) media. The MCF-7 media was supplemented with 10% Foetal Bovine Serum (Sigma, Ireland) (Cat# F7524) and 1% L-Glutamine (Sigma, Ireland) (Cat# 592020C). The MCF-12A media was supplemented with 5% Equine Serum (Sigma, Ireland) (Cat# H0146) 1.25% L-Glutamine (Sigma, Ireland) (Cat# 592020C), 20 ng/ml Human Epidermal Growth Factor (Thermo Fisher Scientific, Ireland) (Cat# PHG0313), 0.01 mg/ml insulin (Thermo Fisher Scientific, Ireland)(Cat# 12585014) and 500 ng/ml hydrocortisone (Sigma, Ireland) (Cat# H0888). The cells were grown in T75 culture flasks (Sarstedt, Germany) (Cat# 83.3911.002) and were incubated in a 5% CO2 atmosphere at 37 ℃. […] Following the incubation period, the media was removed, and cells were washed with sterile phosphate-buffered saline (PBS). […] Following the exposure period, the drug-containing media was removed, and cells were washed three times with PBS, ensuring complete removal of the test agents. A 5% working solution of Alamar Blue (Thermo Fisher Scientific, Ireland) (Cat# DAL1100) was prepared in dark conditions using unsupplemented cell culture media. 100 μl of the solution was added to each well, and the cells were incubated for 3 h. […] Each exposure was carried out in triplicate plates and was repeated three independent times. The software packages Microsoft^Ⓡ Excel (USA) and GraphPad Prism (Ver. 10.0.3) (GraphPad, USA) were used to analyse the alamar blue data. The treated sample values were first normalised to the negative control values. After normalisation, the mean and standard deviations (SD) were established using Microsoft^Ⓡ Excel. The statistical analysis package GraphPad was then used to determine the IC25 and IC50 concentrations.

[2] = test system: MCF-12A cells; assay: as above
Description: The MCF-7 (human breast cancer) and MCF-12A (non-tumourigenic human breast) cell lines were obtained from the Technological University Dublin (TUDublin, City Campus) internal cell bank and commercially from the American Type Culture Collection (ATCC), respectively. Both cell lines were cultured using Dulbecco’s Modified Eagle Medium/Nutrient Mixture F-12 Ham (DMEM-F12) (Sigma, Ireland) (Cat# D6421) media. The MCF-7 media was supplemented with 10% Foetal Bovine Serum (Sigma, Ireland) (Cat# F7524) and 1% L-Glutamine (Sigma, Ireland) (Cat# 592020C). The MCF-12A media was supplemented with 5% Equine Serum (Sigma, Ireland) (Cat# H0146) 1.25% L-Glutamine (Sigma, Ireland) (Cat# 592020C), 20 ng/ml Human Epidermal Growth Factor (Thermo Fisher Scientific, Ireland) (Cat# PHG0313), 0.01 mg/ml insulin (Thermo Fisher Scientific, Ireland)(Cat# 12585014) and 500 ng/ml hydrocortisone (Sigma, Ireland) (Cat# H0888). The cells were grown in T75 culture flasks (Sarstedt, Germany) (Cat# 83.3911.002) and were incubated in a 5% CO2 atmosphere at 37 ℃. The cells were monitored daily, and once 80–90% confluence was reached, they were subcultured with an enzymatic dissociation method using trypsin. Both cell lines were routinely subcultured for 1 week prior to beginning experimental work, to ensure the cells had adapted to the environment.
The MCF-7 and MCF-12A cells were seeded at a density of 1 × 10^4 in 96-well flat bottom plates (Sarstedt, Germany) (Cat# 83.3924) and incubated in a 5% CO2 atmosphere at 37 ℃ for 24 h prior to exposure to the complexes. Following the incubation period, the media was removed, and cells were washed with sterile phosphate-buffered saline (PBS). […] All agents were diluted in supplemented cell culture media, and the cells were exposed to a concentration range of 0.5 μM–100 μM for 24 h in the conditions outlined previously. Following the exposure period, the drug-containing media was removed, and cells were washed three times with PBS, ensuring complete removal of the test agents. A 5% working solution of Alamar Blue (Thermo Fisher Scientific, Ireland) (Cat# DAL1100) was prepared in dark conditions using unsupplemented cell culture media. 100 μl of the solution was added to each well, and the cells were incubated for 3 h. Following incubation, absorbance values were obtained using a Varioskan Lux (Thermo Scientific, USA) at 570 nm and 600 nm wavelengths. Each exposure was carried out in triplicate plates and was repeated three independent times.
The software packages Microsoft^Ⓡ Excel (USA) and GraphPad Prism (Ver. 10.0.3) (GraphPad, USA) were used to analyse the alamar blue data. The treated sample values were first normalised to the negative control values. After normalisation, the mean and standard deviations (SD) were established using Microsoft^Ⓡ Excel. The statistical analysis package GraphPad was then used to determine the IC25 and IC50 concentrations. […] A p value of 0.05 or lower is considered to be statistically significant.

[3] = test system: MCF-7 cells; assay: Apoptosis induction, Annexin V / propidium iodide flow cytometry; conditions: MCF-7, IC25 concentration, 24 h
Description: MCF-7 and MCF-12A cells were seeded at a density of 1 × 10^5 in T25 flasks (Sarstedt, Germany) and incubated for 24 h at 37 °C with 5% CO2 allowing for attachment. Post -incubation, the media was removed, cells were washed with sterile PBS and then treated using IC25 concentrations established from the in vitro cytotoxicity screen. […] After the exposure period, the cells were enzymatically detached using trypsin, collected and centrifuged at 1200RPM for 10 min. The cells were then washed with PBS, re-centrifuged and resuspended in 1 ml of annexin binding buffer. Prior to staining, the concentration of each sample was adjusted to 1 × 10^6 cells/ml. The cells were stained with 1 μl of propidium iodide (PI) (Sigma, Ireland) (Cat #P4864) and 2 μl of Annexin V (Thermo Fisher Scientific, Ireland) (Cat #A13199). The cells were incubated at room temperature for 15 min prior to analysis. The staining process was completed in the dark to eliminate interference with photo-sensitive reagents. Immediately prior to analysis by flow cytometry, 400 μl of annexin binding buffer was added to each sample. Samples were analysed using a (CytoFLEX) (Beckman Coulter, USA). The AV/PI assay was completed three independent times.
Flow cytometry data analysis was performed with the CytExpert package (Ver. 2.4) (Beckman Coulter, USA) and Microsoft^Ⓡ Excel (USA). The mean MFI and percentage cells were calculated using these packages, followed by one-way ANOVA analysis with post hoc Bonferroni correction using GraphPad Prism (Ver. 9.4) (GraphPad, USA).
The induction of apoptosis was analysed in MCF-7 and MCF-12A cells using the Annexin V and Propidium Iodide assay with flow cytometry. […] The assay allows for the differentiation of viable, apoptotic and necrotic cells based on the selective staining of Annexin V and PI. Annexin V binds to phosphatidylserines externalised to the outer leaflet of the plasma membrane during apoptosis; and PI is a membrane impermeable dye that binds to DNA of necrotic cells with compromised plasma membranes.

[4] = MCF-7, 24-hour exposure, per one metal centre, mean ± S.D. (N=3)
[5] = MCF-7, 24-hour exposure, per one metal centre, mean ± S.D. (N=3), read-out: IC50 calculated per one metal centre
[6] = MCF-12A, 24-hour exposure, per one metal centre, mean ± S.D. (N=3)
[7] = MCF-12A, 24-hour exposure, per one metal centre, mean ± S.D. (N=3), read-out: IC50 calculated per one metal centre
[8] = MCF-7, 24-h exposure, 25% reduction in metabolic activity, mean ± SD (N = 3)
[9] = MCF-12A, 24-h exposure, 25% reduction in metabolic activity, mean ± SD (N = 3)

| SMILES | Cytotoxic activity IC25 ± SD [1] | pIC50 [1] | IC25 calculated per one metal centre [1, 4] | pIC50 [1, 5] | Cytotoxic activity IC25 ± SD [2] | pIC50 [2] | IC25 calculated per one metal centre [2, 6] | pIC50 [2, 7] | Cytotoxic activity IC25 ± SD [1, 8] | pIC50 ([1]; MCF-7, 24-h exposure, 50% reduction in metabolic activity, mean ± SD (N = 3), read-out: Cytotoxic activity IC50 ± SD) | Cytotoxic activity IC25 ± SD [2, 9] | pIC50 ([2]; MCF-12A, 24-h exposure, 50% reduction in metabolic activity, mean ± SD (N = 3), read-out: Cytotoxic activity IC50 ± SD) | Decrease in toxicity compared to phen-containing complex 4 ([1]; Ag(I) pre-cursor vs complex 4) | Decrease in toxicity compared to phen-containing complex 5 ([1]; Ag(I) pre-cursor vs complex 5) | Necrotic population (% cells) [3] |
| --- | --- | --- | --- | --- | --- | --- | --- | --- | --- | --- | --- | --- | --- | --- | --- |
| O=C([O-])CCCCCCC(=O)[O-].O=C([O-])CCCCCCC(=O)[O-].[Cu+2].[Cu+2] [Complex 3, [Cu2(oda)2]] | > 100 µM | < 4.00 | >100  µM | < 4.00 | > 100 µM | < 4.00 | >100  µM | < 4.00 |  |  |  |  |  |  |  |
| O.O=C([O-])CCCCCCC(=O)[O-].[Mn+2] [Complex 8, [Mn(oda)]⋅H2O] |  |  | >100  µM | < 4.00 |  |  | >100  µM | < 4.00 | > 100 µM | < 4.00 | > 100 µM | < 4.00 |  |  |  |
| O=C([O-])CCCCCCC(=O)[O-].[Ag+].[Ag+] [Complex 6, [Ag2(oda)]] |  |  | 27.80 ± 5.86 µM |  |  |  | 12.86 ± 9.80 µM |  | 13.90 ± 2.93 µM |  | 6.43 ± 4.9 µM |  | approximately twofold | ~3.5 fold | high necrotic populations |

From publication PMC12119673, “Apoptotic cell death induced by copper (II), manganese (II) and silver (I) complexes containing bridging dicarboxylate and 1,10-phenanthroline ligands: one of the multi-modes of anticancer activity?” (Biometals, 2025)
